Results as given in patent publication US20170184612A1, “USE OF LEUKOCYTES AND NOVEL BIOMARKERS IN THE DIAGNOSIS, CONFIRMATION, AND TREATMENT OF A NEUROLOGICAL DISORDER” (The Trustees of Columbia University in the City of New York, priority 2014, published 2017).
Where a SMILES comes first, the peptide text is derived from it. The star is where a group is joined. Cbz = O=C(OCc1ccccc1)*; CH2F = FC*

What was measured:
Assay type in all cases: cell-based, mouse
VM DA (TH+) neurons [1] = assay: OT-1 T cell cytotoxicity (killing) assay on VM DA neurons; details: for effect on CTL mediated neuronal death: neurons with IFN-γ, SIINFEKL and OT-1 cells
Procedure: OT-1 CD8^+ cell proliferation was assessed by BrdU incorporation. For OT-1 T cell cytotoxicity assays, DC and VM (from C57BL/6 and 56.129P2-B2mtm1Unc/J mice) cell cultures were incubated with neuronal medium or neuronal medium containing 100 ng/ml of IFN-γ (R&D Systems). Neurons were loaded with or without […] (SEQ ID NO: 9) peptide (1 μM), and, subsequently in vitro activated OT-1 cells were added at a density of 100,000 cells/well and co-incubated for 24 h.
We used the same conditions for VM cell cultures with microglial medium previously stimulated with LPS, NM or α-syn instead of IFN-γ. Neurons were pre-incubated with IFN-γ and […] (SEQ ID NO: 9) peptide as above, and then with: 1) a pan-caspase general inhibitor (Z-VAD-FMK, 20 μM, 24h, IMGENEX); 2) a specific granzyme/perforin inhibitor (concanamycin A, 100 nM, 24h, Sigma Aldrich); 3) a specific Fas/FasL antagonist (Kp7-6, 1 mM, 24h, EMD Biosciences) and 4) concanamycin A and Kp7-6 together. OT-1 cells were then added to the culture (100,000 cells/well) and maintained for 24 h.
Following immunocytochemical staining of VM neurons, we assessed the proportion of surviving DA (TH^+) and non-DA cells (MAP-2^+, TH^−). Total numbers of TH^+ and MAP-2^+ neurons were counted in 24 fields surrounding the border of the well at 20× magnification. The number of surviving TH+ neurons with an intact soma and two or more neurites equal to or greater than the diameter of the cell soma was counted and normalized to the number in untreated cultures.

[2] = tested on: primary microglial cultures; assay: ELISA of IFN-γ released by microglia; details: primary microglial culture
Procedure: Briefly, for microglial cultures cells dissociated from 5 cortexes of 0-3 days old C57/B16 mice were seeded onto 75 cm^2 cell culture flasks in microglial culture medium (MEM supplemented with calf serum, glucose 45%, penicillin/streptomycin, insulin (25 mg/ml) and 200 mM glutamine) in a 5% CO^2 incubator at 37° C. (Sulzer et al., 2008). Two weeks later, microglia were detached from flasks by mild shaking and plated on 12 well-plates at a density of 45,000-50,000 microglial cells/well. For neuronal cultures, the area of interest was dissected and neurons were dissociated and plated at a density of 80,000/cm′ onto a layer of rat cortical glial cells grown on round glass coverslips and maintained in culture medium without added GDNF (glial cell line-derived neurotrophic factor) in a 5% CO^2 incubator at 37° C. for 5-9 days)(Sulzer et al., 2008). IFN-γ (R&D Systems) was used at a range of non-toxic concentrations for neurons or OT-1 cells (10 μg/ml-100 ng/ml, 72h). […] The concentration of IFN-γ released by microglia (plated as above) was measured by an ELISA kit (eBioscience) that detected the amount of this proinflammatory cytokine in a range of […].

primary VM neurons = assay: MHC-I expression of VM neurons after microglial conditioned medium; details: for cell surface MHC-I presentation by VM neurons: conditioned medium from microglia incubated 72 hours with the substance; for induction of neuronal MHC-I: cultures directly exposed, absence of microglial cells
Procedure: (§1) IFN-γ (R&D Systems) was used at a range of non-toxic concentrations for neurons or OT-1 cells (10 μg/ml-100 ng/ml, 72h). 12-well cell culture plates were pre-treated with LPS (500 ng/ml, Sigma-Aldrich), NM (5 μg/ml), α-syn, Nit-α-syn or Mut-α-syn (200 μg/ml, kindly provided by Peter Lansbury, Harvard University) for 72 h before plating 45,000-50,000 microglial cells/well for an additional 24h. A neutralizing IFN-γ antibody (1:500, PBL InterferonSource) was used to block IFN-γ released from microglia. VM neurons were incubated for 72 h with microglial medium pre-stimulated by LPS, NM, α-syn, Nit-α-syn or Mut-α-syn. As a control experiment, we directly incubated VM neurons with the same compounds in the absence of microglia. In another set of experiments, VM, cortical and striatal primary neurons were incubated for 72 h with microglial medium pre-stimulated by LPS, NM, α-syn. NM was induced in SN cultured neurons by using L-DOPA (Sulzer et al., 2000) (Sigma Aldrich). For foreign protein processing and subsequent antigen presentation, VM cultures were maintained for 7 days in either 1) BSA/serum-free neuronal medium, 2) BSA/serum-free supplemented with OVA (2.5 mg/ml), adding IFN-γ (100 ng/ml) or saline for an additional 72h.
Images were captured using a Leica SP5 microscope system. There was no fluorescence bleed-through of secondary antibodies under the conditions used. MHC-I label observed in the neuronal cultures obtained from wild type mice was absent in neurons from β2m KO mice (FIG. 3A).
(§2) In order to assess the proportion of TH^+ and MAP-2^+ neurons that expressed MHC-I^+, first TH^+ and MAP-2^+ neurons were counted in 24 fields surrounding the border of the well at 20× magnification. The number of TH^+ or MAP-2^+ neurons with intact soma and two or more neurites equal to or greater than the diameter of the cell soma was counted. Then, the fluorescent filter was inserted for each field to determine how many of these neurons also expressed MHC-I.

[3] = tested on: SN murine neuronal cultures; assay: NM and MHC-I induction by L-DOPA in SN neuronal cultures
Description: To enhance cytosolic DA, the DA precursor, L-DOPA, was used, which is accumulated by amino acid transport and converted into DA in the cytosol. Exposure to high levels of L-DOPA can produce NM in both catecholaminergic and nominally non-catecholaminergic cells (Sulzer et al., 2000). […] SN murine neuronal cultures were exposed to L-DOPA under conditions that substantially increase cytosolic DA as measured by intracellular patch electrochemistry (Mosharov et al., 2009) and promote NM production as observed by brightfield microscopy (Sulzer et al., 2000).
as §1, with “For foreign protein processing and subsequent antigen presentation, VM cultures were maintained for 7 days in either 1) BSA/serum-free neuronal medium, 2) BSA/serum-free supplemented with OVA (2.5 mg/ml), adding IFN-γ (100 ng/ml) or saline for an additional 72h.” left out
(§3) Images were captured using a Leica SP5 microscope system. There was no fluorescence bleed-through of secondary antibodies under the conditions used. […]
as §2, with “Then, the fluorescent filter was inserted for each field to determine how many of these neurons also expressed MHC-I.” left out

OT-1 CTL cells = assay: OT-1 CD8+ cell proliferation by BrdU incorporation; details: combination with IFN-γ; DC and VM neuronal cultures
Description: The capacity of CTLs to respond to MHC-I induced SN neurons was examined first, by following CTL proliferation using 5-bromo-2-deoxyuridine (BrdU) incorporation.
Primary DCs were obtained from mouse […] femur hematopoietic stem cells. In brief, mouse femur hematopoietic stem cells from bone marrow were harvested from the hind legs of 8 to 12-week old male wild-type C57BL/6J and plated at 2×10^6 cells/ml density in DC culture medium (DMEM supplemented with 10% FBS, lx non-essential amino acids, 2 mM L-glutamine, 1 mM sodium pyruvate and 20 mM HEPES). For differentiation to dendritic cells, 10 ng/ml of recombinant mouse GM-CSF was added to media. Cells were fed every 2 days with fresh DMEM containing GM-CSF, and the cultures were trypsinized after 8 days and plated at 4×10^5 cells/cm^2 density to be used for experiments the following day (Tallóczy et al., 2008). OT-1 CD8^+ and OT-2 CD4^+ T cell lines, a kind gift from Dr. Raphael Clynes (Department of Medicine and Microbiology, Columbia University Medical Center), express a transgene encoding T cell receptor that specifically recognizes […] (SEQ ID NO: 9) peptide (derived from OVA) bound to MHC-I H-2Kb or to MHC-II I-A/I-E (Hogquist et al., 1994). Activated primary OT-1 and OT-2 T cells were generated by the addition of […] […]
OT-1 CD8^+ cell proliferation was assessed by BrdU incorporation. […]

VM DA (TH+) neurons [4] = assay: Antigen processing and presentation, […]-MHC-I immunolabel; details: IFN-γ with extracellular SIINFEKL, positive control
Procedure: Following exposure of SN neuronal cultures to OVA or vehicle for 7 days, neurons were exposed to IFN-γ or saline for 72 h (note that these cultures were never exposed to […] (SEQ ID NO: 9)). The cultures were then double immunolabeled for TH and an antibody that recognizes only the MHC-I complex when is occupied by […] (SEQ ID NO: 9) ([…]-MHC-I). Occasional label of astrocytes, but not neurons, for […]-MHC-I was observed when the cultures were exposed to the vehicle, IFN-γ, or OVA alone (FIG. 5A). […] The results herein indicate that OVA had been processed to […] (SEQ ID NO: 9) within these mixed neuron/astrocyte cultures and loaded into the MHC-I groove within neuronal cytosol, and that the resulting complex was presented on the neuronal plasma membrane.
IFN-γ (R&D Systems) was used at a range of non-toxic concentrations for neurons or OT-1 cells (10 μg/ml-100 ng/ml, 72h). […]
as §3
as §2, with “Then, the fluorescent filter was inserted for each field to determine how many of these neurons also expressed MHC-I.” left out

[5] = SIINFEKL, CTLs and medium conditioned by microglia exposed to the substance

| Compound | effect on CTL mediated neuronal death (VM DA (TH+) neurons [1]) | neuronal death (VM DA (TH+) neurons [1]; [5]) | cell surface MHC-I presentation by VM neurons (primary VM neurons) | induction of neuronal MHC-I (primary VM neurons) | further results |
| --- | --- | --- | --- | --- | --- |
| C/C=C/[C@H]1O[C@@](O)([C@@H](C)[C@H](O)[C@H](C)[C@H]2OC(=O)/C(OC)=C/C(C)=C/[C@@H](C)[C@@H](O)[C@@H](CC)[C@@H](O)[C@H](C)C/C(C)=C/C=C/[C@@H]2OC)C[C@@H](O[C@H]2C[C@@H](O)[C@H](OC(N)=O)[C@@H](C)O2)[C@@H]1C [concanamycin A] | protect against CTL mediated neuronal death | – | – | – | – |
| lipopolysaccharide [LPS, reference compound] | – | caused extensive neuronal death | elicited cell surface MHC-I presentation | no induction | IFN-γ secretion, in words [2]: induced IFN-γ secretion |
| N[C@@H](Cc1ccc(O)c(O)c1)C(=O)O [L-DOPA, L-dihydroxyphenylalanine] | – | – | – | – | neurons in which NM was induced [3]: 40%; TH+ neurons with MHC-I display ([3]; TH+ neurons): ~10%; TH− neurons with MHC-I display ([3]; TH− neurons): ~7% |
| α-syn: alpha synuclein protein, wild type | – | caused extensive neuronal death | elicited cell surface MHC-I presentation | no induction | – |
| COC(=O)C[C@H](NC(=O)[C@H](C)NC(=O)[C@@H](NC(=O)OCc1ccccc1)C(C)C)C(=O)CF [Z-VAD-FMK] (Cbz-Val-Ala-Asp(OMe)-CH2F) | protect against CTL mediated neuronal death | – | – | – | – |
| SIINFEKL [8 amino acid peptide derived from OVA] | – | – | – | – | CTL proliferation (OT-1 CTL cells): induced similar CTL proliferation by both DC and VM neuronal cultures; neuronal death (VM DA (TH+) neurons [1]; combination of CTLs, IFN-γ and SIINFEKL, MHC-I null (KO) SN neurons): no neuronal death was triggered; TH+ neurons killed (VM DA (TH+) neurons [1]; combination of CTLs, IFN-γ and SIINFEKL, wild type neurons): 55%; TH+ neurons with SIINFEKL-MHC-I immunolabel (VM DA (TH+) neurons [4]): ~70% |
